Data from US20210087565A1, “ANTISENSE ANTIBIOTICS AND BACTERIAL SECRETION BASED DELIVERY SYSTEM TO ELIMINATE DRUG-RESISTANT BACTERIA” (priority 2018, published 2021).
Entries after “also recorded” stand apart in the source; their conditions may differ. Read-outs that look alike come from different tables or passages of the source.

Tests used:
NDM-1 KPN = assay: Antibiotic resistance screening (MIC against CLSI breakpoints); type: cell-based, Klebsiella pneumoniae; conditions: meropenem, CLSI 2016-2017 breakpoints
Description: (§1) Phenotypic antibiotic resistance characterization of the clinical isolates was performed to determine “sensitive” (S), “intermediate” (I), and “resistant” (R) phenotypes using the 2016-2017 Clinical & Laboratory Standards Institute (CLSI) sensitive/resistant breakpoint values (Table 4).
(§2) Antibiotic resistance screening: Sensitive/resistant breakpoints were taken from the 2016-2017 Clinical & Laboratory Standards Institute report (Table 4). Liquid cultures of the clinical strains were diluted to a 0.5 McFarland standard and added to the respective antibiotic test condition. The antibiotic minimum inhibitory concentration (MIC) for each clinical isolate was determined as the lowest antibiotic concentration which prevented visible cell growth for 24 h. Strains were: “sensitive” if the MIC was equal to or below the sensitive-breakpoint concentration, “resistant” if the MIC was greater than or equal to the resistant-breakpoint concentration, and “intermediate” if the MIC was in-between.

ESBL KPN [1] = assay: Potentiation of antibiotics with PNAs (Bliss Independence); type: cell-based, Klebsiella pneumoniae; conditions: 10 μM PNA + 2 μg/mL tetracycline; for S-value (Bliss Independence model): S>0 indicates synergy
Description: (§3) Combinatorial effects were evaluated using the Bliss Independence model where the S parameter defines a deviation from no interaction as is defined as: […]
(§4) Where ODAB is the OD at saturation time in only antibiotic, OD0 is the OD at saturation in no treatment, ODPNA is the OD at saturation in only antisense-PNA at 10 μM, and ODAB, PNA is the OD at saturation in a combination of antibiotic and antisense-PNA. Saturation time was determined as the time when the no treatment control reached its saturation growth phase. S>0 is a deviation towards synergy and S<0 is a deviation towards antagonism.

MDR E. coli = assay: PNA growth assay (optical density) on clinical isolate; type: cell-based, Escherichia coli; conditions: for growth inhibition: 10 μM PNA, optical density vs no treatment at 16 hours
Description: (§5) Bacterial Cell culture: The clinical isolates were obtained from the lab of Nancy Madinger at the University of Colorado Anschutz campus. Clinical isolates were grown in Cation Adjusted Mueller Hinton broth (CAMHB) (Becton, Dickinson and Company 212322) at 37° C. with 225 rpm shaking or on solid CAMHB with 1.5% agar at 37° C. Clinical isolates were maintained as freezer stocks in 90% CAMHB, 10% glycerol at −80° C. Freezer stocks were streaked out onto solid CAMHB and incubated for 16 h to produce single colonies prior to experiments. For each biological replicate, a single colony was picked from solid media and grown for 16 h in liquid CAMHB prior to experiments. Non-clinical isolates, such as E. coli MG1655 (ATCC700926) and Salmonella entorica serovar typhimurium SL1344, were cultured in liquid 2% lysogeny broth (LB) or on 2% LB with 1.5% agar for solid plates. S. typhimurium cultures were supplemented with 30 μg/mL streptomycin and SL1344 strains containing plasmids pFPV (SL1344-mCherry) or pRG1 modified with a lacIq promoter (SL1344-Holin) were supplemented with 100 μg/mL ampicillin. Freezer stocks were stored in 60% LB broth, 40% glycerol at −80° C. Freezer stocks were streaked out onto solid LB and incubated for 16 h to produce single colonies before experiments. For biological replicates, single colonies were started in liquid LB and grown for 16 hours prior to experiments. E. coli MG1655 PNA growth experiments were carried out in M9 media (1×M9 minimal media salts solution (MP Biomedicals), 2.0 mM MgSO4, and 0.1 mM CaCl2 in sterile water) with 0.4% glucose.
(§6) PNA growth assay: Biological replicates were diluted 1:10,000 into treatment condition in 384-well plates and measured for 24 h in a Tecan GENios at 562 nm with a bandwidth of 35 nm. Media absorbance blanks were subtracted from data prior to analysis. Normalized optical density (OD) data is shown normalized to the time point where the “no treatment” growth curves reached saturation phase which varied across biological replicates.

CRE E. coli [2] = assay: as above; type: cell-based, Escherichia coli; conditions: for growth inhibition: 10 μM PNA, optical density vs no treatment at 16 hours
Description: as §5, §6

MDR STm = assay: as above; type: cell-based, Salmonella enterica serovar typhimurium; conditions: MDR STm; 10 μM PNA; optical density vs no treatment at 16 hours
Description: as §5, §6

ESBL KPN [3] = assay: as above; type: cell-based, Klebsiella pneumoniae; conditions: for monotherapy effect (in words): 10 μM
Description: as §5, §6

[4] = system: clinical isolates of Enterobacteriaceae; assay: Antibiotic resistance screening (MIC against CLSI breakpoints), all strains; type: cell-based; conditions: CLSI 2016-2017 breakpoints
Description: as §1, §2

[5] = system: SL1344-mCherry in HeLa cells; assay: Double infection of HeLa cells, PNA delivery and release by SL1344-Holin; type: cell-based, Salmonella enterica serovar typhimurium
Description: FIG. 14. Combining the bacterial Type III secretion system (T3SS) and the holing/endolysin kill switch for PNA delivery and release. (A) Schematic showing the PNA deliver and release approach using the T3SS and Holin systems respectively to treat an intracellular infection of HeLa cells. HeLa cells were seeded 24 hours prior to infection. A 4:1 mixture of SL1344-Holin to SL1344-mCherry cells with (Bottom) and without (Top) 45 minute PNA pretreatment used to infect HeLa cells for 45 minutes. (Bottom) The PNA enters SL1344-Holin during the 45 minute pretreatment and is carried into the HeLa cell during infection. Following infection and gentamicin protection, the PNA is released from the SL1344-Holin during the 18-hours of treatment to target the SL1344-mCherry population. After 18-hours of incubation the HeLa cells are lysed to determine the number of intracellular colony forming units. (B) Normalized intracellular bacterial load represented as the ratio of normalized SL1344-mCherry:
To that end, the present inventors built a “delivery strain” of Salmonella by expressing the holin lysis cassette, encoding a holin-antiholin according to SEQ ID NO. 34, under control of an inducible laciQ promoter (referred to as SL1344-Holin, FIG. 24), and a therapeutic “target strain” of Salmonella by expressing mCherry from a plasmid in SL1344 (referred to as SL1344-mCherry). The present inventors followed the same infection protocol as described above with few modifications and treated cells with a different PNA, α-recA (N′-[…]-AEEA-[…]-C′), to show the generalizability of the assay. […] As with the previous experiment, the present inventors allowed the Salmonella to uptake the PNA during a 45 minute incubation where the treatment condition (referred to as T3SS-PNA) consisted of SL1344-Holin incubated with 10 μM of α-recA in phosphate buffer saline (PBS) and the no treatment was incubated in only PBS. In parallel, equal cell densities of the target strain SL1344-mCherry was incubated with PBS for 45-minutes. SL1344-Holin (with or without PNA) and SL1344-mCherry cells were washed and mixed in a ratio of 4:1 respectively to achieve a final total MOI of approximately 10:1 for infection of HeLa cells. The infection was carried out for 45 minutes followed by the removal of extracellular bacteria using a gentamicin wash (FIG. 5A), and 18 hours of incubation in fresh growth medium containing gentamicin. […] To account for this variation, the present inventors measured the extracellular and intracellular bacterial load before and after infection respectively and reported the normalized ratio of the latter to the former (FIG. 5B-C, FIG. 26). […]

SL1344 = assay: Growth inhibition of SL1344 in broth culture; type: cell-based, Salmonella enterica serovar typhimurium; conditions: 10 μM, 24 hours
Description: FIG. 25. α-recA growth inhibition of SL1344. Optical density was measured at 600 nm in 50 μL cultures and normalized optical density is reported at 24 hours as absorbance at 600 nm minus media blank and each biological replicate normalized to the optical density reading at time zero. Overnight cultures of SL1344 were diluted 1:10,000 and treated with 10 μM addition of α-recA for 24 hours. Error bars indicate standard deviation of n=3 biological replicates.

E. coli MG1655 = assay: Growth curves and CFU of lab strain treated with PNA; type: cell-based, Escherichia coli; conditions: 10 μM
Description: FIG. 7. Dose response of various PNA. Optical density of a 1:10,000 dilution of MG6155 from overnight liquid culture, treated with various concentrations of antisense inhibitors was measured for 3 biological replicates with error bars as standard deviations. Normalized growth was measured as the optical density at 22 hours normalized to no treatment. An asterisk (*) indicates a significant difference (p<0.05) as compared to no treatment for each inhibitor.
FIG. 8. Antisense Inhibitors targeting novel pathways can inhibit growth of E. coli. z. (A) Growth curves of E. coli MG1655 from a 1:10,000 dilution from an overnight culture, normalized to time t=0 with 10 μM of respective antisense inhibitor. […] (B) Colony forming units per milliliter of MG1655 E. coli for respective treatment as a function of time. The CFU/mL at t=0 represents the starting culture after a 1:100,000 dilution from overnight culture. […] Significance is measured as p<0.05.
as §5
PNA growth assay: Biological replicates were diluted 1:10,000 into treatment condition in 384-well plates and measured for 24 h in a Tecan GENios at 562 nm with a bandwidth of 35 nm. Media absorbance blanks were subtracted from data prior to analysis. […]

CRE E. coli [6] = type: cell-based, Escherichia coli; conditions: for S-value (Bliss Independence model): S>0 indicates synergy; for growth with combination therapy (in words): p<0.05
Description: as §3, §4

[7] = 10 μM PNA + chloramphenicol 8 μg/mL

C[C@@H](O)[C@H]1C(=O)N2C(C(=O)O)=C(S[C@@H]3CN[C@H](C(=O)N(C)C)C3)[C@H](C)[C@H]12 [meropenem]
antibiotic resistance phenotype (NDM-1 KPN): resistant

α-ffh: 12-mer antisense PNA GACAATGTTTGA (SEQ ID NO. 16) targeting ffh, conjugated to (KFF)3K cell penetrating peptide via AEEA-linker (all peptide nucleic acid (PNA); (KFF)3K cell-penetrating peptide attached via AEEA linker)
growth with combination therapy (in words) (ESBL KPN [1]): significant growth inhibition compared to each monotherapy
S-value (Bliss Independence model) (ESBL KPN [1]): positive
growth inhibition (MDR E. coli): 99±0.9%
growth inhibition (CRE E. coli [2]): 98±1.5%
growth inhibition (MDR STm): 99±0.8%
monotherapy effect (in words) (ESBL KPN [3]): no or minimal growth inhibition

CC1(C)S[C@@H]2[C@H](NC(=O)[C@H](N)c3ccccc3)C(=O)N2[C@H]1C(=O)O [ampicillin]
antibiotic resistance phenotype ([4]; ampicillin): resistant

N′-KFFKFFKFFK-AEEA-GTCGATAGCAT-C′ [α-recA]
drop of normalized ratio of SL1344-mCherry to SL1344-Holin ([5]; SL1344-Holin pretreated 45 minutes with 10 μM PNA, HeLa cells, 18 hours, compared to no treatment): 99.6±0.72%
fate of target strain SL1344-mCherry (in words) ([5]; two out of three biological replicates, across a range of MOI): completely eliminated
normalized mCherry/Holin (in words) ([5]; with 1 mM IPTG during treatment, p=0.006): Significant decrease
normalized mCherry/Holin (in words) ([5]; without IPTG (leaky expression), p=0.026): Significant decrease
effect on Salmonella in broth cultures (in words) (SL1344): lethal

α-gyrB: 12-mer antisense PNA GTTGATGTCGAA (SEQ ID NO. 18) targeting gyrB, conjugated to (KFF)3K cell penetrating peptide via AEEA-linker (all peptide nucleic acid (PNA); (KFF)3K cell-penetrating peptide attached via AEEA linker)
growth with combination therapy (in words) (ESBL KPN [1]): significant growth inhibition compared to each monotherapy
S-value (Bliss Independence model) (ESBL KPN [1]): positive
monotherapy effect (in words) (MDR E. coli): effective in killing
growth inhibition (MDR E. coli): 36±14.2%
monotherapy effect (in words) (CRE E. coli [2]; 10 μM): partial therapeutic effect; also recorded: effective in killing
growth inhibition (CRE E. coli [2]): 71±12%
growth inhibition (MDR STm): 74±15.4%
monotherapy effect (in words) (ESBL KPN [3]): no or minimal growth inhibition
growth inhibition (ESBL KPN [3]; 10 μM PNA, optical density vs no treatment at 16 hours): 5±1.4%
effect on growth (in words) (E. coli MG1655): effective in killing
S-value (Bliss Independence model) (CRE E. coli [6]; [7]): 0.27
growth with combination therapy (in words) (CRE E. coli [6]; [7]): significant growth inhibition with combination therapy compared to each monotherapy
S-value (Bliss Independence model) (CRE E. coli [6]; 10 μM PNA + gentamicin 4 μg/mL): 0.19
growth with combination therapy (in words) (CRE E. coli [6]; 10 μM PNA + gentamicin 4 μg/mL): significant growth inhibition with combination therapy compared to each monotherapy

CO/N=C(\C(=O)N[C@@H]1C(=O)N2C(C(=O)O)=C(CSc3nc(=O)c(=O)[nH]n3C)CS[C@H]12)c1csc(N)n1 [ceftriaxone]
antibiotic resistance phenotype ([4]; ceftriaxone): resistant
